We go through 13 compounds from PMC6017214, “Rational Design of a New Class of Toll-Like Receptor 4 (TLR4) Tryptamine Related Agonists by Means of the Structure- and Ligand-Based Virtual Screening for Vaccine Adjuvant Discovery” (Molecules : A Journal of Synthetic Chemistry and Natural …, 2018).

Data set [1] has as its system CHO-K1 (Chinese hamster ovary). Description: MTT cytotoxicity assay. The following applies: Cricetulus griseus, CHO-K1 cells, 24 h exposure, mean of 2–3 independent measurements, read-out: IC50 and SEM. The class given is cell-based. As to the method: The toxicity was estimated on the cell cultures in order to exclude the most toxic motifs from further development and to test whether the compounds might be used in the functional cell-model of TLR4. Standard MTT assay (Sigma Aldrich, Damrstadt, Germany) was applied according to the manufacturer’s protocol on the CHO-K1 (Chinese hamster ovary, ECACC, Salisbury, UK).
The IC50 values were calculated from the control-subtracted triplicates using non-linear regression (four parameters) of GraphPad Prism 5 software (GraphPad Software, La Jolla, CA, USA). Final IC50 and SEM value was obtained as a mean of 2–3 independent measurements (see Table 3).
Standard MTT assay (Sigma Aldrich, Darmstadt, Germany) was applied according to the manufacturer’s protocol on the CHO-K1 (Chinese hamster ovary, ECACC, Salisbury, UK) in order to compare the effect of different compound within the series. The cells were cultured according to ECACC recommended conditions and seeded in a density of 8000 per well. […] Cells were exposed to the tested compounds for 24 h. Then the medium was replaced by a medium containing 10 μM of MTT and cells were allowed to produce formazan for another approximately 3 h under surveillance. Thereafter, medium with MTT was sucked out and crystals of formazan were dissolved in DMSO (100 µL). Cell viability was assessed spectrophotometrically by the amount of formazan produced. Absorbance was measured at 570 nm with 650 nm reference wavelength on Synergy HT (BioTek, Winooski, VT, USA). IC50 was then calculated from the control—subtracted triplicates using non-linear regression (four parameters) of GraphPad Prism 5 software (GraphPad Software, La Jolla, CA, USA). Final IC50 and SEM value was obtained as a mean of 2–3 independent measurements.
In general terms: Formazan colour is commonly taken as a measure of viable cells.

Data set [2] has as its system human Periferal blood mononuclear cells (PBMCs). Kind of data set: Ex vivo stimulation of IL-6 production (ELISA). The class given is cell-based. The following applies: 24 h; for ability to elicit IL-6 production (in words): 10 µM; for c (IL-6 production): 10 µM of each compound (MPLA 10 μM, LPS-RS 100 ng/mL), ELISA, dash = no IL-6 production found. The text has this:
Important factor in adjuvants development is wheter the compounds are capable to elicit immune response not only on reporter cells but on real immunocompetent cels. We have chosen ex vivo study on human Periferal blood mononuclear cells (PBMCs) to evaluate the ability to produce an interleukin 6 (IL-6). […] We have collected the blood samples from healthy donors. From those blood samples we had harvested PBMCs by standard protocol using Histopaque 1077 density gradient. PBMC specimens were frozen and kept in liquid nitrogen. The cells were incubated for 24 h with 10 µM (10% of lowest cytotoxic IC50—see the Section 2.5 and Section 2.6) of each compound and the ability to elicit IL-6 production was assessed. Synthetic MPLA (MPLAs) in equimolar concentration (10 μM) was used as a positive control and LPS from Rhodobacter sphaeroides 100 ng/mL (LPS-RS) as a negative control. IL-6 production was quantified by ELISA commercial kit (Sigma Aldrich) and results were interpreted by GraphPad Prism using Nonlinear Fit of RIA data function. […] Effect on other pro-inflamatory cytokines (e.g., IL-1) was not determined in this study and will be subject of ongoing study in order to explain discrepancy among in silico, in vitro and ex vivo findings. Furthermore study evaluating the influence of compounds on Th1/Th2/Th17 bias will be needed to thoroughly assess their adjuvant and immunomodulating potential. Nevertheless, despite such necesarry and laborious tasks novel TLR4 agonists and potential vaccine adjuvants have been found.
PBMCs was obtained by standard protocol using Histopaque 1077 gradient from whole blood of healthy donors. Cells were seeded at 25,000 cells per well and incubated for 24 h with final concentration 10 µM of each compound in triplicate (n = 3). After 24 h 100 µL of supernatant was collected from each well and level of IL-6 was determined by human IL-6 ELISA kit obtained from Sigma Aldrich (Darmstadt, Germany). Absorbance was measured at 450 nm wavelength on Synergy HT (BioTek). Level of IL-6 was calculated from standard curve using RIA nonlinear plot in Graph Pad Prism 6.
For orientation: In an ELISA, binding on a coated surface is turned into a signal by an enzyme label.

The target in the next data set is T1, hTLR4/MD2 receptor (Homo sapiens, UniProt O00206+Q9Y6Y9).
T1 construct: host or cells: HEK-Blue-hTLR4 cells
T1 sequence (O00206 24-839): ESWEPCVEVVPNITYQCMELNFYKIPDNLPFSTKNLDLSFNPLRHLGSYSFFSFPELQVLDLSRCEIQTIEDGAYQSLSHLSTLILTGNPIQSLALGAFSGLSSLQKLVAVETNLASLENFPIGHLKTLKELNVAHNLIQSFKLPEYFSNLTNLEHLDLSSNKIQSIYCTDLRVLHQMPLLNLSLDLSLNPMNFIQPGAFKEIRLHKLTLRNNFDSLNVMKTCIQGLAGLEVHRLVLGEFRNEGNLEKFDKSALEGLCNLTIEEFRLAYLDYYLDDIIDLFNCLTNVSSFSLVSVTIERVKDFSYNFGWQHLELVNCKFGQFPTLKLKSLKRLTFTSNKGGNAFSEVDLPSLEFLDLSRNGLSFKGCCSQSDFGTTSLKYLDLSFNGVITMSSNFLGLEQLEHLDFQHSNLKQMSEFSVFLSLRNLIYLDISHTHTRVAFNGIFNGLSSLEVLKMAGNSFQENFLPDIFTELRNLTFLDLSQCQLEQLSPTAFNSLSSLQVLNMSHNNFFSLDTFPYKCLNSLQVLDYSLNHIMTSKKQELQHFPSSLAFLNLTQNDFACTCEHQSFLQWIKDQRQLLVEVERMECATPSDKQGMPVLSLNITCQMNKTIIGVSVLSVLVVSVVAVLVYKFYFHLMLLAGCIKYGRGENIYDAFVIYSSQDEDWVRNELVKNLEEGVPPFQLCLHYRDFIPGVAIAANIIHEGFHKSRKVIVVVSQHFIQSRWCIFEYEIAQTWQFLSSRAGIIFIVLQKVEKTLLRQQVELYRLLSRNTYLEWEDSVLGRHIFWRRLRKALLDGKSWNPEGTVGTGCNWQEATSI
T1 sequence (Q9Y6Y9 17-160 limits assumed): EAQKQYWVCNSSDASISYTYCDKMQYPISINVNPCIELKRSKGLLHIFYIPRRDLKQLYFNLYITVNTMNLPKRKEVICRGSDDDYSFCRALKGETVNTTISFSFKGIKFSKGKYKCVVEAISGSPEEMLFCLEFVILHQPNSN
Description: In vitro hTLR4/MD2 activity assessment in HEK-Blue-hTLR4 reporter cells (SEAP). To be noted: 10 µM, 16 h, relative to MPLA at same concentration, n = 3. The class given is cell-based. As to the method: Aliquots of 20 µL of each compound was added into the well containing 25000 HEK-Blue™-hTLR4 cells (Invivogen, Toulouse, France) and the final concentration of compound in each well was 10 µM. Each concentration was evaluated in triplicate. Synthetic MPLAs (Invivogen) of the same concentration was used as positive control, apyrogenous saline F1 (BBraun, Prague, Czech Republic) was used as negative control. Plates were incubated overnight for 16 h at 37 °C 5% CO2. After the incubation 20 μL aliquots of supernatant were collected and mixed with 200 μL of SEAP detection media (QuantiBlue™, Invivogen) and incubated for 2 h at 37 °C 5% CO2. Absorbance of the solution was measured at 630 nm and activity of each compound expressed as a percentage of an activity of the MPLA of respective concentration was determined (n = 3).

In data set [3] the target is T2, Recombinant hTRL4/MD2 complex (Homo sapiens, UniProt O00206+Q9Y6Y9).
T2 construct: purchased R&D Systems
T2 sequence (O00206 24-631 limits assumed): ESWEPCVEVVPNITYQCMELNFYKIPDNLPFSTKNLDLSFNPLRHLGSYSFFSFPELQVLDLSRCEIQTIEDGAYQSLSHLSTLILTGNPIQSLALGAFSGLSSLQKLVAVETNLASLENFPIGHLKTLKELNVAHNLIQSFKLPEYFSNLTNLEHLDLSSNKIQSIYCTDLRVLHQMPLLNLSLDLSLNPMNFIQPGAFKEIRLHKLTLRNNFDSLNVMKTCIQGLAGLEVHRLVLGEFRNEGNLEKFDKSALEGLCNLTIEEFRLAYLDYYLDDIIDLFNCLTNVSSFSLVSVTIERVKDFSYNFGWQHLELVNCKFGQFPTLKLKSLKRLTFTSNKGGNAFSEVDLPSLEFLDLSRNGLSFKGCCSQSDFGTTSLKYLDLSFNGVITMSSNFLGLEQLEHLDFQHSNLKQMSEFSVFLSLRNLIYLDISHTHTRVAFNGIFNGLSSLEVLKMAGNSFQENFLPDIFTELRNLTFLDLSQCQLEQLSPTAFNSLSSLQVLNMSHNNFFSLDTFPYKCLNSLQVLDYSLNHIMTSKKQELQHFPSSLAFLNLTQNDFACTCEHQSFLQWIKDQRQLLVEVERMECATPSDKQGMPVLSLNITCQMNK
T2 sequence (Q9Y6Y9 17-160 limits assumed): as the sequence (Q9Y6Y9 17-160 limits assumed) above
Kind of data set: Surface plasmon resonance direct binding (Biacore T200). The method, then:
To shed light on the prediction capabilities of vHTPS, direct binding of the best compound from the in vitro study (17) to the hTRL4/MD2 complex was investigated through Biospecific Interaction Analysis using the SPR-based biosensor Biacore T200 (GE Healthcare, Little Chalfont, UK).
Compound 17 was further analyzed using a series of concentrations from 6.25 up to 200 μM (binary dilution).
Surface plasmon resonance (SPR) experiments methodology was adapted from experiments by Svajger et al.. The experiments were performed using a Biacore T200 (GE Healthcare, Little Chalfont, UK) instrument equipped with a Series S—CM5 sensor chip (GE Healthcare). Dulbecco’s PBS supplied with 0.05% tween 20 and DMSO was used for immobilization of the protein. Recombinant human hTLR4/MD2 (R&D Systems, Minneapolis, MN, USA) was attached to the surface of the chip by amine coupling. The surface of flow cells 1 and 2 was initially activated with a 10-min pulse of a 1:1 mixture of 0.4 M 1-ethyl-3-(3-dimethylaminopropyl)-carbodiimide hydrochloride and 0.1 M N-hydroxysuccinimide, according to manufacturer recommendations. TLR4 was diluted into 10 mM sodium acetate buffer, pH 5.5, to a final concentration of 200 μg/mL, and injected twice for 600 s over the second flow cell. Both flow cells were blocked with a 10-min pulse of 1.0 M ethanolamine pH 8.5. The final capacity level was about 8000 RU. Analysis was performad in the running buffer consisting of Dulbecco’s PBS (10 mM Na2HPO4, 2 mM KH2PO4, 137 mM NaCl, 2 mM KCl, pH 7.4) supplemented with 1% DMSO (Sigma Aldrich, Darmstadt, Germany) and […]. All of the three hits from the cell-based assays were tested at two different concentrations: 20 μM and 200 μM. Each compound was injected for 1 min at a flow-rate of 30 μL/min, and the dissociation was monitored for 30 s. Regeneration was not needed, although 30 s of buffer-flow was used to stabilize the surface after each injection. […] We used the following concentrations for titration: 0, 6.25, 12.5, 25, 50, 100 and 200 μM.
(In SPR one partner is held on a chip, and binding of the other changes the refractive index at the surface.)

Data set [4] in a line: Stability of the solid compounds (observation). The format is physicochemical. The following applies: solid state.

`O=C(NCCc1c[nH]c2ccccc12)c1ccccc1` [Compound 14, N-(2-(1H-Indol-3-yl)ethyl)benzamide]: the IC50 (commonly the concentration at which inhibition is half-maximal) in data set [1] worked out at 297 ± 17 µM. For the same compound, in data set [2], the “ability to elicit IL-6 production (in words)” value is “significantly induce production of IL-6” and the “c (IL-6 production)” value is on record as 53.501 pg/mL.
As for `Cc1ccc(C(=O)NCCc2c[nH]c3ccccc23)cc1` [Compound 15, N-(2-(1H-Indol-3-yl)ethyl)-4-methylbenzamide], the IC50 in data set [1] amounted to 197 ± 41 µM.
Turning to `COc1ccc(C(=O)NCCc2c[nH]c3ccccc23)cc1` [Compound 16, N-(2-(1H-Indol-3-yl)ethyl)-4-methoxybenzamide], the melting point (usually the temperature, or range, at which the solid turns liquid) lay within 132.8 to 134.3 °C. Also, the IC50 in data set [1] was 200 ± 7 µM.
Turning to `O=C(NCCc1c[nH]c2ccccc12)c1ccc(Cl)cc1` [Compound 17, N-(2-(1H-Indol-3-yl)ethyl)-4-chlorobenzamide], the IC50 in data set [1] was found to be 201 ± 8 µM. Further, at hTLR4/MD2 receptor, the “activity of MPLA (hTLR4/MD2 agonist activity normalized to MPLA)” value was “more than 20%”. Further, the “dissociation (SPR, in words)” value in data set [3] (6.25 up to 200 μM) was “rapid dissociation rates”. The Kd (usually the free concentration of one partner at which half of the binding sites on the other are occupied at equilibrium, for simple one-to-one binding) in data set [3] (SPR, immobilized hTRL4/MD2, 6.25 up to 200 μM) stood at 0.747 µM. Besides, the “direct binding to the hTRL4/MD2 complex (SPR, in words)” value in data set [3] (immobilized recombinant hTRL4/MD2) is “direct binding to the hTRL4/MD2 complex was confirmed”. Further, the “ability to elicit IL-6 production (in words)” value in data set [2] is on record as “did not shown any effect”.
The compound `O=C(NCCc1c[nH]c2ccccc12)c1ccc(Cl)c(Cl)c1` [Compound 18, N-(2-(1H-Indol-3-yl)ethyl)-3,4-dichlorobenzamide] returned a melting point of 112.4 to 113.9 °C. The IC50 in data set [1] was 892 ± 122 µM.
The matching figures for `O=C(NCCc1c[nH]c2ccccc12)c1ccc2ccccc2c1` [Compound 19, N-(2-(1H-Indol-3-yl)ethyl)-2-naphthamide]: 193.2 to 195 °C and 155 ± 12 µM.
The matching figures for `O=C(NCCc1c[nH]c2ccccc12)C1CCCCC1` [Compound 20, N-(2-(1H-Indol-3-yl)ethyl)cyclohexanecarboxamide]: 104.8 to 106.3 °C and 211 ± 43 µM.
For `O=C(NCCc1c[nH]c2ccccc12)c1cccc2ccccc12` [Compound 21, N-(2-(1H-Indol-3-yl)ethyl)-1-naphthamide], the melting point was 164.5 to 166.5 °C.
In turn, `O=C(NCCc1c[nH]c2ccccc12)C1CCc2ccccc2C1` (stereo not drawn) [Compound 22, N-(2-(1H-Indol-3-yl)ethyl)-1,2,3,4-tetrahydronaphthalene-2-carboxamide] came in with a melting point of 123.2 to 125.2 °C. In data set [1], the IC50 was 128 ± 8 µM. Besides, the “activity of MPLA (hTLR4/MD2 agonist activity normalized to MPLA)” value at hTLR4/MD2 receptor is roughly 10%. Also, in data set [2], the “ability to elicit IL-6 production (in words)” value is “significantly induce production of IL-6” and the “c (IL-6 production)” value is reported as 147.64 pg/mL.
In turn, `O=C(NCCc1c[nH]c2ccccc12)c1ccc2c(c1)CCCC2` [Compound 23, N-(2-(1H-Indol-3-yl)ethyl)-5,6,7,8-tetrahydronaphthalene-2-carboxamide] came in with a melting point of 137 to 139 °C. Besides, the IC50 in data set [1] is 98 ± 6 µM.
On to `O=C(NCCc1c[nH]c2ccccc12)C1CCCCCC1` [Compound 24, N-(2-(1H-Indol-3-yl)ethyl)cycloheptanecarboxamide], for which the melting point lay within 88.4 to 90.4 °C. Also, the half-inhibitory concentration (IC50) in data set [1] stood at 170 ± 10 µM. Also, the “stability of the compound (in words)” value in data set [4] was “unwanted degradations from crystals to amorphous state”.
The like results for `CC(C)CCC(=O)NCCc1c[nH]c2ccccc12` [Compound 25, N-(2-(1H-Indol-3-yl)ethyl)-4-methylpentanamide] were, in that order, 45.1 to 47.1 °C, 348 ± 35 µM and “unwanted degradations from crystals to amorphous state”.
Turning to “Monophosphoryl lipid A [MPLA, reference compound]”, the “c (IL-6 production)” value in data set [2] was determined as 3078.97 pg/mL.
